Measurements reported in patent US9326972B2, “Use of phenylmethimazoles, methimazole derivatives, and tautomeric cyclic thiones for the treatment of autoimmune/inflammatory diseases associated with toll-like receptor overexpression” (Ohio University, priority 2004, dated 2016).

Assays:
IRF-3 = IRF-3 transactivation cis reporter in FRTL-5 thyrocytes; assay type: cell-based, rat; conditions: FRTL-5, 6 hours, 0.5 mM C-10
Experimental: FIG. 5. Phenylmethimazole (CIO) and Methimazole (MMI) inhibit the ability of Poly (I:C), lipopolysaccharide (LPS) and IL-1β to increase IFN-β gene expression (Top Left) and IRF-3 transactivation (Top Right) in FRTL-5 thyrocytes. (Top Left) Cells were co-transfected with IFNβ-Luc and control vector (pRLTk-Int), then treated with or without (−) Poly (I:C) (100 μg/ml), LPS (100 ng/ml), or IL-1β (10 ng/ml) in the presence of the vehicle (DMSO) alone (−), C10, or MMI for 6 hours. Data was obtained with the Dual Luciferase Assay system. (Top Right) Cells were co-transfected with Gal4 DBD/IRF-3 and Gal4-Luc then treated with nothing (−), poly (I:C), LPS, or IL-1β as in (Top Left) in the presence of DMSO or C10 for 6 hours. Data was obtained by Luciferase assay. Also shown is a graphic depiction (Bottom) of how the cis reporting system is working. Data are representative of multiple experiments.
We measured the ability of C10 to inhibit IRF-3 transactivation activity in FRTL-5 thyrocytes, using the IRF-3 cis reporter system (FIG. 5, bottom).
Plasmids for Reporter Gene Assays. Human IRF-3 was amplified from human cDNA and cloned into pCR 2.1 by the TOPO/TA (Invitrogen, Carlsbad, Calif.) cloning method, and then sequenced. IRF-3 was then excised by EcoRI digestion and subcloned into pCMV-BD (Stratagene, La Jolla, Calif.) for use in transactivation assays. […]

Stat1 = Stat1 phosphorylation in Influenza A infected FRTL-5 thyrocytes (Western blot); assay type: cell-based, rat
Experimental: FIG. 6. Phenylmethimazole (C10) has no effect on the ability of Poly (I:C) or LPS to increase formation of the p50/p65 heterodimer complex of […] (A), but can inhibit the Influenza A induced activation of Stat1 phosphorylation in FRTL-5 thyrocytes (B). In (A), EMSA were performed using nuclear extracts from cells which were treated with nothing (none), Poly (I:C) (100 μg/ml), LPS (100 ng/ml), in the presence of DMSO, C10, or MMI for 6 hours. Probe was the NF-κβ consensus oligonucleotide. The p65/p50 and p50/p50 complexes are indicated and were identified as in FIG. 2B by antibody inhibition or supershifts of the p50 or p65 components of the induced complexes. In (B), cells were infected with Influenza A for 24 hours and then DMSO or C10 were added to the medium for 6 hours. In each, 25 μg of nuclear extracts were used in Western blots performed to detect Stat1 PY701. Blots were then stripped and reprobed for unphosphorylated Stat1. The first lane is a non infected control (−).
Immunoprecipitation and Western Blot Analysis. Whole cell lysates were prepared in lysis buffer (10 mM Tris-HCl (pH 7.5), 150 mM NaCl, 1% NP-40) containing protease inhibitors. Nuclear extracts were prepared using the NE-PER extraction reagents with protease inhibitors stated below (Pierce Chemical Co., Rockford, Ill.). […]

NF-κB p65/p50 complex = assay: EMSA of NF-κB p65/p50 complex formation in FRTL-5 thyrocytes; assay type: cell-based, rat; conditions: FRTL-5, EMSA, 6 hours
horses = assay: Peritonitis and endotoxic shock in horses induced by intraperitoneal caecal fluid; assay type: in vivo, horse

Cn1c(-c2ccccc2)cnc1S [Compound C10, 5-Phenylmethimazole]
IRF-3 transactivation by poly (I:C), LPS, or IL-1β (IRF-3): inhibited | virus- or IFN-β-stimulated Stat1 phosphorylation (PY701) (Stat1; FRTL-5, Influenza A 24 hours then C10 6 hours): profound inhibitor | Stat1 serine phosphorylation at residue 727 (Stat1; FRTL-5, Influenza A virus 24 hours, 1 mM C10): reduce | effect on Poly (I:C)- or LPS-increased p65/p50 complex formation (NF-κB p65/p50 complex): did not have any significant effect | effectiveness of treatment (horses; 10 animals so treated): 100% | time to disappearance of signs of collapse or depression after the C-10 bolus (horses; C10 2 mg/kg intravenous bolus at 12 hours): ≤ 15 min | survival rate (horses; endotoxemia and shock due to septic peritonitis, intraperitoneal inoculation of intestinal flora): 100%
